The text below walks through data of PubChem BioAssay (NCI).

Molecules are shown by their SMILES.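 Results reflect a 48-hour exposure of cells in 96-well plates to compound at five concentrations. TGI: total growth inhibition.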

Test systems include SNB-19 CNS; DMS 114 small cell lung; NCI-H23 lung; DMS 273 small cell lung; COLO 205 colon; ACHN renal; HOP-92 NSCLC; SNB-78 CNS; HCT-15 colon; M14 melanoma.
Assay in all cases: inhibition of tumour cell growth, NCI panel, 48 h

For the molecule `COCCNC(=O)C1C(=O)C(=O)N(CCOC)C1=O` (stereo not given), the TGI in the assay on SNB-19 CNS, with DMS 114 small cell lung, in the assay on NCI-H23 lung, with DMS 273 small cell lung, in the assay on COLO 205 colon and with ACHN renal was above 100 µM throughout. Moreover, the TGI in the assay with HOP-92 NSCLC, in the assay with SNB-78 CNS, with HCT-15 colon and in the assay on M14 melanoma was above 100 µM throughout.

Consider `NC(=O)NNC(=O)NC12CC3CC(CC(C3)C1)C2`, for which the TGI with SNB-19 CNS, in the assay with DMS 114 small cell lung, in the assay on NCI-H23 lung, in the assay on DMS 273 small cell lung, in the assay on COLO 205 colon and in the assay with ACHN renal was above 100 µM throughout. Further, the TGI with HOP-92 NSCLC, with SNB-78 CNS, in the assay with HCT-15 colon and in the assay with M14 melanoma was above 100 µM throughout.

As to `Cc1ccc(S(=O)(=O)N/N=C(/CC(=O)c2c(C)n([O-])c3ccccc3[n+]2=O)C(=O)Nc2ccccc2C)cc1`, the TGI with SNB-19 CNS, in the assay with DMS 114 small cell lung, in the assay with NCI-H23 lung, in the assay on DMS 273 small cell lung, with COLO 205 colon and in the assay on ACHN renal was above 100 µM each time. Further, the TGI in the assay with HOP-92 NSCLC, with SNB-78 CNS, in the assay with HCT-15 colon and in the assay with M14 melanoma was above 100 µM in each case.

Consider `O=C(O)/C=C/c1nc2ccccc2c(=O)o1`, for which the TGI in the assay with SNB-19 CNS, with DMS 114 small cell lung, in the assay on NCI-H23 lung, in the assay on DMS 273 small cell lung, in the assay on COLO 205 colon and with ACHN renal was above 100 µM throughout. The TGI with HOP-92 NSCLC, in the assay on SNB-78 CNS, with HCT-15 colon and with M14 melanoma was above 100 µM throughout.

With `N#Cc1ccc(C=NC23CC4CC(CC(C4)C2)C3)cc1`, the TGI in the assay on SNB-19 CNS, in the assay with DMS 114 small cell lung, with NCI-H23 lung, in the assay on DMS 273 small cell lung, in the assay on COLO 205 colon and with ACHN renal was above 100 µM each time. The TGI in the assay on HOP-92 NSCLC, in the assay on SNB-78 CNS, in the assay on HCT-15 colon and in the assay with M14 melanoma was above 100 µM in each case.

For `COc1ccc(/C=C2\CCC(C)(CN(C)C)C2=O)cc1OC` (stereo not given), the TGI in the assay on SNB-19 CNS, with DMS 114 small cell lung, in the assay on NCI-H23 lung, in the assay on DMS 273 small cell lung, with COLO 205 colon and in the assay on ACHN renal was above 100 µM in each case. Also, the TGI with HOP-92 NSCLC, in the assay on SNB-78 CNS, with HCT-15 colon and with M14 melanoma was above 100 µM throughout.

Regarding `CCOC(=O)/C(C#N)=C(O)/C(=C\c1ccc(Br)cc1)NC(=O)c1ccccc1`, the TGI in the assay with SNB-19 CNS, with DMS 114 small cell lung, in the assay with NCI-H23 lung, in the assay on DMS 273 small cell lung, with COLO 205 colon and in the assay on ACHN renal was above 100 µM each time. For the same molecule, the TGI in the assay on HOP-92 NSCLC, with SNB-78 CNS, with HCT-15 colon and with M14 melanoma was above 100 µM each time.

On to `C[N+](C)(C)CC1CCCC1=O` (stereo not given), for which the TGI in the assay on SNB-19 CNS stood at 50.8 µM; in the assay with DMS 114 small cell lung, 8.31 µM; with NCI-H23 lung it was 9.67 µM; in the assay with DMS 273 small cell lung, 19.9 µM; with COLO 205 colon, 2.99 µM; in the assay on ACHN renal, 9.94 µM. For the same molecule, the TGI in the assay with HOP-92 NSCLC worked out at 2.66 µM; in the assay on SNB-78 CNS it was 9.86 µM; in the assay with HCT-15 colon, 7.44 µM; in the assay on M14 melanoma, 2.61 µM.

For `Cc1ccccc1NC(=O)C(=O)C(C#N)c1ccccc1C` (stereo not given), the TGI in the assay with SNB-19 CNS, in the assay on DMS 114 small cell lung, with NCI-H23 lung, with DMS 273 small cell lung, in the assay with COLO 205 colon and in the assay on ACHN renal was above 100 µM in each case. Besides, the TGI with HOP-92 NSCLC, in the assay on SNB-78 CNS, with HCT-15 colon and with M14 melanoma was above 100 µM each time.

With `O=c1[nH]cc(F)c(=O)n1C1OC(CO)C(O)C1O` (stereo not given), the TGI with SNB-19 CNS, in the assay on DMS 114 small cell lung, with NCI-H23 lung, in the assay on DMS 273 small cell lung, in the assay on COLO 205 colon and in the assay with ACHN renal was above 100 µM throughout. The TGI in the assay on HOP-92 NSCLC, in the assay with SNB-78 CNS, in the assay on HCT-15 colon and in the assay with M14 melanoma was above 100 µM in each case.
